Results published in patent US20220395497A1, “Cancer Treatment Using Camptothecin Derivatives” (priority 2019, published 2022).
Several values for one entry are separate records, joined by “and”; a condition that tells them apart may be missing. Identical values can stand only once. Entries after “also recorded” stand apart in the source; their conditions may differ.

Tested on: adults with recurrence of glioblastoma multiforme (GBM)
Assay: Phase 2 open-label study of IV AR-67 (7.5 mg/m2 once daily for 5 days, 21-day cycle) in recurrent GBM: adverse events (Safety Population, NCI-CTCAE). Cohort 1 = not received or not recently failed (>90 days) bevacizumab; Cohort 2 = recently (<90 days) failed bevacizumab
Type: in vivo, human
Conditions: for 1 related SAE, patients (%) / related SAE, No of Events / related TEAE, No of Events / ≥1 related TEAE, patients (%): possibly, probably, or definitely related
Description: This solution was reconstituted in dextrose 5% in water to a final concentration between 0.06-0.6 mg/mL Drug (7.5 mg/m2) was to be given until the onset of toxicity requiring discontinuation or tumor progression. Tumor response was assessed=14d after every second cycle and before every third cycle using MRI.

[1] = reGBM, single agent, infusion, N = 45

CC[C@@]1(O)C(=O)OCc2c1cc1n(c2=O)Cc2c-1nc1ccc(O)cc1c2[Si](C)(C)C(C)(C)C [AR-67, (205)-7-tert-butyldimethysilyl-10-hydroxycamptothecin]
TEAE NCI-CTCAE Grade 1, No of Events (Cohort 1, N = 30): 178
TEAE NCI-CTCAE Grade 1, patients (%) (Cohort 1, N = 30): (70.0) %
TEAE NCI-CTCAE Grade 2, No of Events (Cohort 1, N = 30): 94
TEAE NCI-CTCAE Grade 2, patients (%) (Cohort 1, N = 30): (60.0) %
TEAE NCI-CTCAE Grade 3, No of Events (Cohort 1, N = 30): 63
TEAE NCI-CTCAE Grade 3, patients (%) (Cohort 1, N = 30): (63.3) %
TEAE NCI-CTCAE Grade 4, No of Events (Cohort 1, N = 30): 5
TEAE NCI-CTCAE Grade 4, patients (%) (Cohort 1, N = 30): (16.7) %
TEAE NCI-CTCAE Grade 5, No of Events (Cohort 1, N = 30): 0
TEAE Nausea, patients (%) (Cohort 1, N = 30): 13.3%
TEAE Nervous System Disorders, patients (%) (Cohort 1, N = 30): (50.0) %
TEAE Neutropenia, patients (%) (Cohort 1, N = 30): 16.7%
TEAE Neutrophil count decreased, patients (%) (Cohort 1, N = 30): 16.7%
TEAE Not Related to AR-67, No of Events (Cohort 1, N = 30): 83
TEAE Not Related to AR-67, patients (%) (Cohort 1, N = 30): (66.7) %
TEAE Platelet count decreased, patients (%) (Cohort 1, N = 30): 13.3%
TEAE Possibly Related to AR-67, No of Events (Cohort 1, N = 30): 146
TEAE Possibly Related to AR-67, patients (%) (Cohort 1, N = 30): (66.7) %
TEAE Probably Related to AR-67, No of Events (Cohort 1, N = 30): 76
TEAE Probably Related to AR-67, patients (%) (Cohort 1, N = 30): (40.0) %
TEAE Psychiatric Disorders, patients (%) (Cohort 1, N = 30): 30.0%
TEAE Respiratory, Thoracic, and Mediastinal Disorders, patients (%) (Cohort 1, N = 30): (30.0) %
TEAE Thrombocytopenia, patients (%) (Cohort 1, N = 30): 20%
TEAE Vascular Disorders, patients (%) (Cohort 1, N = 30): (23.3) %
TEAE Vision blurred, patients (%) (Cohort 1, N = 30): (10.0) %
TEAE Vomiting, patients (%) (Cohort 1, N = 30): 10.0%
TEAE White blood cell count decreased, patients (%) (Cohort 1, N = 30): 16.7%
TEAE leading to death, No of Events (Cohort 1, N = 30): 16
TEAE leading to early discontinuation, No of Events (Cohort 1, N = 30): 5
TEAE, No of Events (Cohort 1, N = 30): 346
severe WBC count decreased, patients (%) (Cohort 1, N = 30): 10.0%
severe neutropenia, patients (%) (Cohort 1, N = 30): 16.7%
severe neutrophil count decreased, patients (%) (Cohort 1, N = 30): 10.0%
≥1 TEAE leading to death, patients (%) (Cohort 1, N = 30): (3.3) %
1 related SAE, patients (%) (Cohort 1, N = 30): (20.0) %
related SAE, No of Events (Cohort 1, N = 30): 10
related TEAE, No of Events (Cohort 1, N = 30): 258
≥1 related TEAE, patients (%) (Cohort 1, N = 30): (83.3) %
SAE blood and lymphatic system disorders, events (Cohort 2): 3
SAE blood and lymphatic system disorders, patients (Cohort 2): 2
SAE headache, patients (Cohort 2): 2
SAE nervous system disorders, events (Cohort 2): 6
SAE nervous system disorders, patients (Cohort 2): 6
Death, No of Events (Cohort 2, N = 13): 2
Death, patients (%) (Cohort 2, N = 13): (15.4) %
SAE, No of Events (Cohort 2, N = 13): 14
TEAE Blood and Lymphatic System Disorders, events (Cohort 2, N = 13): 3
TEAE Blood and Lymphatic System Disorders, patients (%) (Cohort 2, N = 13): 15.4% and 15%
TEAE Constipation, patients (%) (Cohort 2, N = 13): 15.4% and 15%
TEAE Convulsion, patients (%) (Cohort 2, N = 13): 7.7%
TEAE Definitely Related to AR-67, No of Events (Cohort 2, N = 13): 8
TEAE Definitely Related to AR-67, patients (%) (Cohort 2, N = 13): (38.5) %
TEAE Diarrhoea, patients (%) (Cohort 2, N = 13): 15.4% and 15%
TEAE Eye Disorders, patients (%) (Cohort 2, N = 13): 7.7%
TEAE Gastrointestinal Disorders, patients (%) (Cohort 2, N = 13): 53.8%
TEAE General Disorders and Administration Site Conditions, patients (%) (Cohort 2, N = 13): 38.5%
TEAE Intensity Life Threatening, No of Events (Cohort 2, N = 13): 1
TEAE Intensity Life Threatening, patients (%) (Cohort 2, N = 13): (7.7) %
TEAE Intensity Mild, No of Events (Cohort 2, N = 13): 20
TEAE Intensity Mild, patients (%) (Cohort 2, N = 13): (53.8) %
TEAE Intensity Moderate, No of Events (Cohort 2, N = 13): 18
TEAE Intensity Moderate, patients (%) (Cohort 2, N = 13): (30.8) %
TEAE Intensity Severe, No of Events (Cohort 2, N = 13): 14
TEAE Intensity Severe, patients (%) (Cohort 2, N = 13): (61.5) %
TEAE Investigations SOC, events (Cohort 2, N = 13): 2
TEAE Investigations, patients (%) (Cohort 2, N = 13): 7.7%
TEAE Metabolism and Nutrition Disorders, patients (%) (Cohort 2, N = 13): (15.4) %
TEAE Musculoskeletal and Connective Tissue Disorders, patients (%) (Cohort 2, N = 13): 23.1%
TEAE NCI-CTCAE Grade 1, No of Events (Cohort 2, N = 13): 17
TEAE NCI-CTCAE Grade 1, patients (%) (Cohort 2, N = 13): (53.8) %
TEAE NCI-CTCAE Grade 2, No of Events (Cohort 2, N = 13): 16
TEAE NCI-CTCAE Grade 2, patients (%) (Cohort 2, N = 13): (30.8) %
TEAE NCI-CTCAE Grade 3, No of Events (Cohort 2, N = 13): 16
TEAE NCI-CTCAE Grade 3, patients (%) (Cohort 2, N = 13): (69.2) %
TEAE NCI-CTCAE Grade 4, No of Events (Cohort 2, N = 13): 3
TEAE NCI-CTCAE Grade 4, patients (%) (Cohort 2, N = 13): (23.1) %
TEAE NCI-CTCAE Grade 5, No of Events (Cohort 2, N = 13): 0
TEAE Nausea, patients (%) (Cohort 2, N = 13): 30.8% and 31%
TEAE Nervous System Disorders, patients (%) (Cohort 2, N = 13): 46.2%
TEAE Neutropenia, patients (%) (Cohort 2, N = 13): 7.7%
TEAE Not Related to AR-67, No of Events (Cohort 2, N = 13): 25
TEAE Not Related to AR-67, patients (%) (Cohort 2, N = 13): (53.8) %
TEAE Possibly Related to AR-67, No of Events (Cohort 2, N = 13): 19
TEAE Possibly Related to AR-67, patients (%) (Cohort 2, N = 13): (53.8) %
TEAE Probably Related to AR-67, No of Events (Cohort 2, N = 13): 1
TEAE Probably Related to AR-67, patients (%) (Cohort 2, N = 13): (7.7) %
TEAE Psychiatric Disorders, patients (%) (Cohort 2, N = 13): 23.1%
TEAE Respiratory, Thoracic, and Mediastinal Disorders, patients (%) (Cohort 2, N = 13): (15.4) %
TEAE Thrombocytopenia, patients (%) (Cohort 2, N = 13): 7.7%
TEAE Vision blurred, patients (%) (Cohort 2, N = 13): 7.7%
TEAE Vomiting, patients (%) (Cohort 2, N = 13): 7.7%
TEAE leading to death, No of Events (Cohort 2, N = 13): 1
TEAE leading to early discontinuation, No of Events (Cohort 2, N = 13): 5
TEAE, No of Events (Cohort 2, N = 13): 55
≥1 TEAE leading to death, patients (%) (Cohort 2, N = 13): (7.7) %
1 related SAE, patients (%) (Cohort 2, N = 13): (38.5) %
related SAE, No of Events (Cohort 2, N = 13): 9
related TEAE, No of Events (Cohort 2, N = 13): 28
≥1 related TEAE, patients (%) (Cohort 2, N = 13): (76.9) %
patients with AEs documented as mild, moderate, and severe intensity (span over the three) (Safety Population): 58-69%
toxicities relative to comparator drug (comparison with published trials of the comparator): reduced toxicities relative to the toxicities induced by Etirinotecan treatment; also recorded: reduced toxicities relative to the toxicities induced by Karenitecin treatment; also recorded: reduced toxicities relative to the toxicities induced by Gimatecan treatment; also recorded: reduced toxicities relative to the toxicities induced by Lomustine treatment; also recorded: does not display the severe dose limiting toxicities typical of the marketed standard, Irinotecan; also recorded: dramatically reduced toxicities relative to the toxicities induced by Irinotecan treatment
tolerability (in vivo): generally well tolerated
TEAEs leading to discontinuation from the nervous system disorders SOC, events (of the 10 TEAEs leading to discontinuation): Six
Diarrhoea Grades 3-5 (reGBM, single agent, N = 45): 0%
Nausea Grades 3-5 (reGBM, single agent, N = 45): 2%
Thrombocytopenia Grades 3-4 (reGBM, single agent, N = 45): 4%
Vomiting Grades 3-5 (reGBM, single agent, N = 45): 0%
Neutropenia Grades 3-4 (reGBM, single agent, N = 45, All grade 3): 13%
Diarrhoea Grade 4 [1]: 0%
Nausea Grades 3,4 [1]: 2%
Neutropenia Grade 4 [1]: 0%
Vomiting Grades 3,4 [1]: 0%
